Data published in US9637496B2, “Substituted 7-azabicycles and their use as orexin receptor modulators” (priority 2013, dated 2017).
Where two headings read alike, the source gives them in different places.

Assays:
human orexin 2 receptor = human orexin 2 receptor (Homo sapiens (Human), UniProt O43614); experiment: Human orexin 2 receptor radioligand binding ([3H]-EMPA competition, HEK293 membranes)
human orexin 1 receptor = human orexin 1 receptor (Homo sapiens (Human), UniProt O43613); experiment: Human orexin 1 receptor radioligand binding (competitive binding, CHO membranes)
Sequence of human orexin 1 receptor (O43613 whole entry): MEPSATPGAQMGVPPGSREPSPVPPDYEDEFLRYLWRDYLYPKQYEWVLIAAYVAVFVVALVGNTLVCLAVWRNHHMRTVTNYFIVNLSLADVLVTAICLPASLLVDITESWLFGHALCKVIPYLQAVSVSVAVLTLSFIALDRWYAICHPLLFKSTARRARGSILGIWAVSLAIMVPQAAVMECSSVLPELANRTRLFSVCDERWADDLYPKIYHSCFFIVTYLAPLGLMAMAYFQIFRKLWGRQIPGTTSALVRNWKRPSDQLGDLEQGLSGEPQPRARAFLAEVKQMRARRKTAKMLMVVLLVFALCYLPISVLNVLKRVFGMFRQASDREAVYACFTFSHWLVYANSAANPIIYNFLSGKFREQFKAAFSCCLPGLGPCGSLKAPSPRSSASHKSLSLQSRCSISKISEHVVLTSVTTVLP

rat orexin 1 receptor = rat orexin 1 receptor (Rattus norvegicus (Rat), UniProt P56718); experiment: Rat orexin 1 receptor radioligand binding (competitive binding, HEK293 membranes)
Sequence of rat orexin 1 receptor (P56718 whole entry): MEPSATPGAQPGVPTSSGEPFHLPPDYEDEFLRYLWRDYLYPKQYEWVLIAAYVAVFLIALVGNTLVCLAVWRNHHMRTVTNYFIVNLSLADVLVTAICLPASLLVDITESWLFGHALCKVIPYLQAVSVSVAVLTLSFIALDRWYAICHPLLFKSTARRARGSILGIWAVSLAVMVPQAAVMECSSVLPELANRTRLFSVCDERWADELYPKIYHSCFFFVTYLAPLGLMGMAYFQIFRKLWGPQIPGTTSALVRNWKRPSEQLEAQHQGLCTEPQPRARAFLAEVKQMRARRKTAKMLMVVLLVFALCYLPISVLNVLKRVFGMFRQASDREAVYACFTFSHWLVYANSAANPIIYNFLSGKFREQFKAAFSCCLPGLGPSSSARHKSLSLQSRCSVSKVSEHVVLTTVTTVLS

[1] = human orexin 1 receptor, Table 2, averages of 2-20 runs, read-out: hOX1 Ki
[2] = human orexin 2 receptor, Table 2, averages of 2-20 runs, read-out: hOX2 Ki
[3] = rat orexin 1 receptor, Table 2, averages from between 2-20 runs, read-out: rOX1 Ki
[4] = human orexin 2 receptor, Table 2, averages from between 2-20 runs, read-out: hOX2 Ki
[5] = Table 2, further testing, averages from 2-20 runs, read-out: rOX1 Ki
[6] = Table 2, further testing, averages from 2-20 runs, read-out: hOX2 Ki

Sequence of human orexin 2 receptor (O43614 whole entry): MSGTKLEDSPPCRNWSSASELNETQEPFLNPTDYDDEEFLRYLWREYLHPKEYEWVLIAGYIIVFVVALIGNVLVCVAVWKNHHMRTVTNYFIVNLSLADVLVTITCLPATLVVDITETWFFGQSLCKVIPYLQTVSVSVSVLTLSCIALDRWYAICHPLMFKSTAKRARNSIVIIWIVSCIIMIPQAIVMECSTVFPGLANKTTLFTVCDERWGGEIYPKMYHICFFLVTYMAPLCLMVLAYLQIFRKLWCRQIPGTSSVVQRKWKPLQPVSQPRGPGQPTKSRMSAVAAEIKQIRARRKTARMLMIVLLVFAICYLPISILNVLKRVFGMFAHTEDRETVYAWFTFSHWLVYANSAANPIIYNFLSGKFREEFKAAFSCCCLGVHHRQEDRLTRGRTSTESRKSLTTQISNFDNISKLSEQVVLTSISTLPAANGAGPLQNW

| SMILES | Ki (rat orexin 1 receptor; [3]) [nM] | Ki (human orexin 2 receptor; [4]) [nM] | other results |
| --- | --- | --- | --- |
| O=C(c1ccccc1-c1cccs1)N1C2CCC1C(COc1ccc(F)cn1)C2 (racemic) [Example 11, (±)-(2-(((5-fluoropyridin-2-yl)oxy)methyl)-7-azabicyclo[2.2.1]heptan-7-yl)(2-(thiophen-2-yl)phenyl)methanone] | – | – | Ki (human orexin 2 receptor): 13 nM |
| O=C(c1ccccc1-n1cccn1)N1C2CCC1C(COc1ccc(F)cn1)C2 (racemic) [Example 26, (±)-2-(1H-pyrazol-1-yl)phenyl)(2-(((5-fluoropyridin-2-yl)oxy)methyl)-7-azabicyclo[2.2.1]heptan-7-yl)methanone] | – | – | Ki (human orexin 1 receptor; [1]): 134 nM |
| O=C(c1c(F)cccc1-c1ncccn1)N1C2CCC1C(COc1ccc(F)cn1)C2 (racemic) [Example 31, (±)-(2-fluoro-6-(pyrimidin-2-yl)phenyl)(2-(((5-fluoropyridin-2-yl)oxy)methyl)-7-azabicyclo[2.2.1]heptan-7-yl)methanone] | – | – | Ki (human orexin 1 receptor): 43 nM |
| O=C(c1cc(F)ccc1-c1ncccn1)N1C2CCC1C(COc1ccc(F)cn1)C2 (racemic) [Example 32, (4)-(5-fluoro-2-(pyrimidin-2-yl)phenyl)(2-(((5-fluoropyridin-2-yl)oxy)methyl)-7-azabicyclo[2.2.1]heptan-7-yl)methanone] | – | – | Ki (human orexin 2 receptor; [2]): 130 nM |
| Cc1cc(C)nc(OCC2CC3CCC2N3C(=O)c2ccccc2-c2cccs2)n1 (racemic) [Example 46, (±)-(2-(((4,6-dimethylpyrimidin-2-yl)oxy)methyl)-7-azabicyclo[2.2.1]heptan-7-yl)(2-(thiophen-2-yl)phenyl)methanone] | – | – | Ki (human orexin 1 receptor; [1]): 111 nM |
| CCOc1ncc2ccccc2c1C(=O)N1C2CCC1C(COc1ccccn1)C2 (racemic) [Example 83, (±)-(3-ethoxyisoquinolin-4-yl)(2-((pyridin-2-yloxy)methyl)-7-azabicyclo[2.2.1]heptan-7-yl)methanone] | – | – | Ki (human orexin 1 receptor): 13 nM |
| O=C(c1cccc(F)c1-c1ncccn1)N1C2CCC1C(COc1ccc(F)cn1)C2 (racemic) [Example 124, (±)-(3-fluoro-2-(pyrimidin-2-yl)phenyl)(-2-(((5-fluoropyridin-2-yl)oxy)methyl)-7-azabicyclo[2.2.1]heptan-7-yl)methanone] | – | – | Ki (human orexin 1 receptor): 75 nM |
| O=C(c1cccc(F)c1-n1nccn1)N1C2CCC1C(COc1nccc(C(F)(F)F)n1)C2 (racemic) [Example 134, (±)-(3-fluoro-2-(2H-1,2,3-triazol-2-yl)phenyl)(2-(((4-(trifluoromethyl)pyrimidin-2-yl)oxy)methyl)-7-azabicyclo[2.2.1]heptan-7-yl)methanone] | – | – | Ki (rat orexin 1 receptor): 1500 nM; Ki (human orexin 1 receptor): 690 nM |
| COc1c(F)cccc1C(=O)N1C2CCC1C(Nc1ccc(F)cn1)C2 (racemic) [Example 237, (±)-(3-fluoro-2-methoxyphenyl)(2-((5-fluoropyridin-2-yl)amino)-7-azabicyclo[2.2.1]heptan-7-yl)methanone] | > 1000 | – | – |
| O=C(c1cccc(F)c1-n1ccnn1)N1C2CCC1C(Oc1ccc(C(F)(F)F)cn1)C2 (racemic) [Example 424] | 2700 | > 10000 | – |
| O=C(c1c(F)cccc1-n1nccn1)N1C2CCC1C(Oc1ccc(C(F)(F)F)cn1)C2 (racemic) [Example 425] | 587 | – | Ki (human orexin 2 receptor): 5100 nM |
| O=C(c1cccnc1-n1nccn1)N1C2CCC1C(Oc1ccc(C(F)(F)F)cn1)C2 (racemic) [Example 426] | – | – | Ki (rat orexin 1 receptor): 5400 nM; Ki (human orexin 2 receptor): > 10000 nM |
| Cc1ccc(C(=O)N2C3CCC2C(Oc2ccc(C(F)(F)F)cn2)C3)c(-n2nccn2)n1 (racemic) [Example 427] | – | > 10000 | Ki (rat orexin 1 receptor): 560 nM |
| Cc1cnc(-n2nccn2)c(C(=O)N2C3CCC2C(Oc2ccc(C(F)(F)F)cn2)C3)c1 (racemic) [Example 428] | – | > 10000 | Ki (rat orexin 1 receptor): 1100 nM |
| Cc1cccc(C(=O)N2C3CCC2C(Oc2ccc(C(F)(F)F)nc2)C3)c1-n1nccn1 (racemic) [Example 437] | – | > 10000 | Ki (rat orexin 1 receptor): > 10000 nM |
| O=C(c1cccc(F)c1-n1nccn1)N1C2CCC1C(Oc1ccc(C(F)(F)F)nc1)C2 (racemic) [Example 438] | > 10000 | > 10000 | – |
| O=C(c1c(F)cccc1-n1nccn1)N1C2CCC1C(Oc1ccc(C(F)(F)F)nc1)C2 (racemic) [Example 439] | > 10000 | > 10000 | – |

| SMILES | Ki (rat orexin 1 receptor; [3]) [nM] | Ki (human orexin 2 receptor; [4]) [nM] | other results |
| --- | --- | --- | --- |
| O=C(c1cccc(F)c1-n1nccn1)N1C2CCC1C(Oc1ncc(Br)cn1)C2 (racemic) [Example 441] | – | > 10000 | Ki (rat orexin 1 receptor): 1500 nM |
| O=C(c1cccc(F)c1-n1nccn1)N1C2CCC1C(Oc1cnc3ccccc3n1)C2 (racemic) [Example 442] | 349 | 1900 | – |
| O=C(c1cccc(F)c1-n1nccn1)N1C2CCC1C(Oc1cc(Br)cnc1Cl)C2 (racemic) [Example 443] | > 10000 | > 10000 | – |
| O=C(c1cccc(F)c1-n1nccn1)N1C2CCC1C(Oc1cnc(C(F)(F)F)cn1)C2 (racemic) [Example 445, (R/S)-(3-fluoro-2-(2H-1,2,3-triazol-2-yl)phenyl)(2-((5-(trifluoromethyl)pyrazin-2-yl)oxy)-7-azabicyclo[2.2.1]heptan-7-yl)methanone] | – | – | Ki (rat orexin 1 receptor; [5]): 460 nM; Ki (human orexin 2 receptor; [6]): > 10000 nM |
| Cc1ccc(C(=O)N2C3CCC2C(Oc2cnc(C(F)(F)F)cn2)C3)c(-n2nccn2)n1 (racemic) [Example 446, (R/S)-(6-methyl-2-(2H-1,2,3-triazol-2-yl)pyridin-3-yl)(2-((5-(trifluoromethyl)pyrazin-2-yl)oxy)-7-azabicyclo[2.2.1]heptan-7-yl)methanone] | – | – | Ki (rat orexin 1 receptor; [5]): 4700 nM; Ki (human orexin 2 receptor; [6]): > 10000 nM |
| O=C(c1cccc(F)c1-c1ncccn1)N1C2CCC1C(Oc1cnc(C(F)(F)F)cn1)C2 (racemic) [Example 447, (R/S)-(3-fluoro-2-(pyrimidin-2-yl)phenyl)(2-((5-(trifluoromethyl)pyrazin-2-yl)oxy)-7-azabicyclo[2.2.1]heptan-7-yl)methanone] | – | – | Ki (rat orexin 1 receptor; [5]): 293 nM; Ki (human orexin 2 receptor; [6]): > 10000 nM |
| Cc1coc(-c2ccc(C)nc2C(=O)N2[C@@H]3CC[C@H]2[C@H](COc2ncc(F)cn2)C3)n1 [Example 179, ((1S,2R,4R)-2-(((5-fluoropyrimidin-2-yl)oxy)methyl)-7-azabicyclo[2.2.1]heptan-7-yl)(6-methyl-3-(4-methyloxazol-2-yl)pyridin-2-yl)methanone] | – | – | Ki (rat orexin 1 receptor; rat orexin 1 receptor, Table 2, averages of 2-20 runs, read-out: rOX1 Ki): 2400 nM; Ki (human orexin 2 receptor; [2]): 5400 nM |
| Cc1cccc(C(=O)N2[C@@H]3CC[C@H]2[C@H](Nc2cnc(C(F)(F)F)cn2)C3)c1-c1ncco1 [Example 266, (3-methyl-2-(oxazol-2-yl)phenyl)((1S,2R,4R)-2-((5-(trifluoromethyl)pyrazin-2-yl)amino)-7-azabicyclo[2.2.1]heptan-7-yl)methanone] | 6 | – | – |
| O=C(c1cccc(F)c1-c1ncccn1)N1[C@H]2CC[C@@H]1[C@@H](Nc1cnc(C(F)(F)F)cn1)C2 [Example 297, (3-fluoro-2-(pyrimidin-2-yl)phenyl)((1R,2S,4S)-2-((5-(trifluoromethyl)pyrazin-2-yl)amino)-7-azabicyclo[2.2.1]heptan-7-yl)methanone] | – | – | Ki (rat orexin 1 receptor): 402 nM; Ki (human orexin 1 receptor; human orexin 1 receptor, Table 2, averages from between 2-20 runs, read-out: hOX1 Ki): > 10000 nM |
| Cc1cnc(-c2ncccn2)c(C(=O)N2[C@@H]3CC[C@H]2[C@H](Nc2ccc(C(F)(F)F)cn2)C3)c1 [Example 378, (5-methyl-2-(pyrimidin-2-yl)pyridin-3-yl)((1S,2R,4R)-2-((5-(trifluoromethyl)pyridin-2-yl)amino)-7-azabicyclo[2.2.1]heptan-7-yl)methanone] | 310 | > 10000 | – |
| O=C(c1cccnc1-n1nccn1)N1[C@@H]2CC[C@H]1[C@H](Nc1cnc(C(F)(F)F)cn1)C2 [Example 402, (2-(2H-1,2,3-triazol-2-yl)pyridin-3-yl)((1S,2R,4R)-2-((5-(trifluoromethyl)pyrazin-2-yl)amino)-7-azabicyclo[2.2.1]heptan-7-yl)methanone] | 575 | > 10000 | – |
| Cc1cnc(-c2ncccn2)c(C(=O)N2[C@@H]3CC[C@H]2[C@H](Nc2cnc(C(F)(F)F)cn2)C3)c1 [Example 404, (5-methyl-2-(pyrimidin-2-yl)pyridin-3-yl)((1S,2R,4R)-2-((5-(trifluoromethyl)pyrazin-2-yl)amino)-7-azabicyclo[2.2.1]heptan-7-yl)methanone] | 419 | > 10000 | – |
| COc1ccc(C(=O)N2[C@@H]3CC[C@H]2[C@H](Nc2cnc(C(F)(F)F)cn2)C3)c(Cl)n1 [Example 413, (2-chloro-6-methoxypyridin-3-yl)((1S,2R,4R)-2-((5-(trifluoromethyl)pyrazin-2-yl)amino)-7-azabicyclo[2.2.1]heptan-7-yl)methanone] | > 10000 | > 10000 | – |
| O=C(c1cccc(F)c1-c1ncccn1)N1[C@@H]2CC[C@H]1[C@H](Nc1nc(C(F)(F)F)cs1)C2 [Example 418, (3-fluoro-2-(pyrimidin-2-yl)phenyl)((1S,2R,4R)-2-((4-(trifluoromethyl)thiazol-2-yl)amino)-7-azabicyclo[2.2.1]heptan-7-yl)methanone] | 459 | 2500 | – |
| O=C(c1cccc(F)c1-c1ncccn1)N1[C@@H]2CC[C@H]1[C@H](Nc1nnc(C(F)(F)F)s1)C2 [Example 419, (3-fluoro-2-(pyrimidin-2-yl)phenyl)((1S,2R,4R)-2-((5-(trifluoromethyl)-1,3,4-thiadiazol-2-yl)amino)-7-azabicyclo[2.2.1]heptan-7-yl)methanone] | 853 | 7400 | – |
| Cc1cnc(-c2ncccn2)c(C(=O)N2[C@@H]3CC[C@H]2[C@H](Nc2ncc(C(F)(F)F)cc2F)C3)c1 [Example 455, ((1S,2R,4R)-2-((3-fluoro-5-(trifluoromethyl)pyridin-2-yl)amino)-7-azabicyclo[2.2.1]heptan-7-yl)(5-methyl-2-(pyrimidin-2-yl)pyridin-3-yl)methanone] | – | – | Ki (rat orexin 1 receptor; [5]): 464 nM; Ki (human orexin 2 receptor; [6]): > 10000 nM |
